Reference: patent US9987307B2, “Tolerogenic dendritic cells, methods of producing the same, and uses thereof” (SOTIO A.S., priority 2014, dated 2018)
Entries after “also recorded” stand apart in the source; their conditions may differ.

How the values were obtained:
allogeneic T cells = assay: Allostimulatory assay (primary MLR, CFSE dilution); format: cell-based, human; conditions: compared to tDCs without inhibitor; day 6
Method: For primary MLR assays, allogeneic T cells (2×10^5) labelled with 5 μM carboxyfluorescein succinimidyl ester (CFSE, Invitrogen) were incubated with tolDC or cDC (2×10^4) in 96-well, round-bottom plates. T cell proliferation was determined by the sequential dilution of CFSE fluorescence of T cells, as detected by flow cytometry on day 6.
T cells were obtained from PBMC non-adherent fraction. tDCs or cDCs (2×104) were cultured with allogeneic T cells (2×105) in complete RPMI medium (Gibco) containing 5% human AB serum (Invitrogen). IL-2 (20 U/ml, PeproTech) was added on day 2, 5 and 7. For primary mixed lymphocyte reaction (MLR) assays, allogeneic T cells (2×105) labelled with 5 μM carboxyfluorescein succinimidyl ester (CFSE) (Invitrogen) were incubated with tDCs or cDCs (2×104). T cell proliferation was determined by the sequential dilution of CFSE fluorescence of T cells, as detected by flow cytometry on day 6. For detection of IFN-γ, IL-10 and IL-17A production by T cells, 2×10^4 tDCs or cDCs were cultured with 2×10^5 allogeneic T cells. Cytokine production was determined by intracellular staining by flow cytometry on day 6 (IFN-γ) and day 9 (IL-10). IL-17A production from cell culture supernatants was analyzed by ELISA on day 6.

glycolysis = assay: Metabolic quantification: lactate in DC supernatants; format: cell-based, human; conditions: pretreatment before restimulation, 24 h
Method: lactate, glucose and lactate dehydrogenase measurements: Concentrations of lactate and glucose in DC culture supernatants were measured with Glycolysis Cell-based assay kit (Cayman Chemicals) and Glucose colorimetric assay kit (BioVision), respectively. When indicated, glycolysis was suppressed by treatment with 10 mM 2-deoxyglucose (Sigma) 1 h prior exposition of DCs cultured in Cell Gro into RPMI, LPS, CC, polyI:C or CD40L. LDH activity of the DCs extracts was measured with Lactate dehydrogenase activity assay kit (Sigma).

tDCs [1] = assay: IL-10 and IL-12 production of restimulated tDCs in the presence of inhibitors (ELISA); format: cell-based, human; conditions: restimulation with CC, LPS, polyI:C, CD40L, 24 h
Method: (§1) To induce maturation, DC were treated with vaccine grade monophosphoryl lipid A (MPLA) (2 μg/ml, Cayla-InvivoGen) on day 6 or on day 7. On day 7 or on day 8, DC were harvested, washed and functional assays were performed. Control DC (cDC) were cultured without tolerising factors. For restimulation assays, tolDC and cDC were extensively washed and recultured in complete RPMI 1640 medium (Gibco) in the absence of tolerising factors for 24-72 h, with or without lipopolysaccharide (LPS, 1 μg/ml, Sigma-Aldrich), poly I:C (25 μg/ml, Cayla-InvivoGen), CD40L (1000 ng/ml, Enzo) or a mixture of pro-inflammatory cytokines containing IL-1β (10 ng/ml), TNFα (10 ng/ml), IL-6 (10 ng/ml) and IFNγ (100 ng/ml) (all from R&D systems). Supernatant and cells were collected for further analysis. Signaling inhibitors were added 1 h before the start of experiments under the specified stimulation conditions. SB203580 (p38 MAPK inhibitor at 10 μM), SP600125 (JNK/SAPK inhibitor at 20 μM), PD98059 (ERK1/2 inhibitor at 20 μM), Bay 11-7082 (NF-κB inhibitor at 10 μM), Stattic (STAT3 inhibitor at 5 μM) and rapamycin (mTOR inhibitor at 100 nM) were obtained from Calbiochem and dissolved in DMSO.
(§2) Cell supernatants were harvested after 24 hours of DC stimulation and frozen at −80° C. until analysis. IL-10, IL-12p70, IL-6 and TNFα concentrations were determined in cell culture supernatants of activated DCs using Luminex assay (MILLIPLEX™ Human Cytokine/Chemokine Kit, Merck Millipore) and ELISA assay (DuoSet ELISA Kit, R&D systems) according to manufacturer's instructions.
(§3) Immature DCs were obtained from buffy coats of healthy donors as previously described [Palova-Jelinkova L, Rozkova D, Pecharova B, Bartova J, Sediva A, Tlaskalova-Hogenova H, Spisek R, Tuckova L: Gliadin fragments induce phenotypic and functional maturation of human dendritic cells. J Immunol 2005; 175:7038-7045]. […] Medium and cytokines were replenished on day 3. On day 6, DCs were harvested and seeded in 96-well plates (Nunc) at 1×10^6 cells/ml. On day 7, immature DCs were activated with vacci grade MPLA (2 μg/ml, Cayla-InvivoGen) for 24 hrs. To induce tDCs, DCs were treated with Dex on day 3 (1 μM, Medochemie) and Dex and VitD2-paricalcitol (1.5 ng/ml, Zemplar, Abbott Laboratories) on day 6. Control DCs (cDCs) were cultured without tolerising factors. For restimulation assays, tDCs and cDCs were washed and recultured in complete RPMI medium (Gibco) containing 5% human AB serum (Invitrogen) in the absence of tolerising factors for 24 h, with or without LPS (1 μg/ml, Sigma-Aldrich), polyI:C (25 μg/ml, Cayla-InvivoGen), megaCD40L™ (1000 ng/ml, Enzo Life Sciences) or mixture of pro-inflammatory cytokines containing IL-1β, TNF-α, IL-6 (all 10 ng/ml) and IFN-γ (100 ng/ml) (all from R&D systems). Signaling inhibitors were added 1 h before the start of experiments under the specified stimulation conditions. SB203580 (p38 MAPK inhibitor at 10 μM), SP600125 (JNK/SAPK inhibitor at 20 μM), PD98059 (ERK1/2 inhibitor at 20 μM), Bay 11-7082 (NF-κB inhibitor at 10 μM), Stattic (STAT3 inhibitor at 5 μM) and rapamycin (mTOR inhibitor at 100 nM) were obtained from Calbiochem and dissolved in dimethyl sulfoxide. Supernatants and cells were collected for further analysis.
Cell supernatants were harvested after 24 h of DC stimulation and frozen at −80° C. until analysis. IL-10, IL-12p70, TNF-α and TGF-β concentrations were determined using Luminex assay (MILLIPLEX™ Human Cytokine/Chemokine Kit, Merck Millipore) and ELISA assay (DuoSet ELISA Kit, R&D systems) according to the manufacturer's instructions. Cell supernatants were acidified before measuring TGF-β levels according to the manufacturer's instructions.
lactate, glucose and lactate dehydrogenase measurements: Concentrations of lactate and glucose in DC culture supernatants were measured with Glycolysis Cell-based assay kit (Cayman Chemicals) and Glucose colorimetric assay kit (BioVision), respectively. […]

tDCs [2] = assay: ILT-3, PD-L1 and CD86 expression on restimulated tDCs in the presence of inhibitors (flow cytometry); format: cell-based, human; conditions: for CD86 expression in tDCs in the presence of inhibitor / ILT-3 and PD-L1 expression in tDCs in the presence of inhibitor: restimulation 24 h
Method: as §1
Cells were stained with fluorochrome-conjugated mAbs for 30 min at 4° C. in PBS, washed and analysed on LSRFortessa cell analyzer (BD Biosciences). Appropriate isotype controls were included. Data were analyzed using FlowJo software (Tree Star). DCs were gated according to the FSC, SSC and CD11c+ parameters for analysis. Dead cells were excluded from the analysis based on DAPI staining. For intracellular cytokine staining, T cells were stimulated with phorbol-12-myristate-13-acetate (PMA) (50 ng/ml, Sigma-Aldrich) plus ionomycin (1 μg/ml, Sigma-Aldrich) for 4-16 hours in the presence of Brefeldin A (5 μg/ml, BioLegend) before cell analysing. After stimulation, cells were washed, incubated in Fixation/Permeabilization Buffer (eBiosciences) for 30 min at 4° C., then washed in Permeabilization Buffer (eBiosciences) and stained with appropriate mAb for 30 min at 4° C.
as §3
Cells (2×10^5/well) were stained with fluorochrome-conjugated mAbs for 30 min at 4° C. in PBS, washed and analysed on LSR Fortessa cell analyzer (BD Biosciences). Appropriate isotype controls were included. Data were analyzed using FlowJo software (Tree Star). […]

cDCs = assay: IL-10 and IL-12 production of restimulated cDCs in the presence of inhibitors (ELISA); format: cell-based, human; conditions: for IL-12 production in cDCs in the presence of inhibitor: after LPS and CC triggering
Method: as §1, §2
Immature DCs were obtained from buffy coats of healthy donors as previously described [Palova-Jelinkova L, Rozkova D, Pecharova B, Bartova J, Sediva A, Tlaskalova-Hogenova H, Spisek R, Tuckova L: Gliadin fragments induce phenotypic and functional maturation of human dendritic cells. J Immunol 2005; 175:7038-7045]. […] Medium and cytokines were replenished on day 3. On day 6, DCs were harvested and seeded in 96-well plates (Nunc) at 1×10^6 cells/ml. On day 7, immature DCs were activated with vacci grade MPLA (2 μg/ml, Cayla-InvivoGen) for 24 hrs. To induce tDCs, DCs were treated with Dex on day 3 (1 μM, Medochemie) and Dex and VitD2-paricalcitol (1.5 ng/ml, Zemplar, Abbott Laboratories) on day 6. Control DCs (cDCs) were cultured without tolerising factors. […]
Cell supernatants were harvested after 24 h of DC stimulation and frozen at −80° C. until analysis. IL-10, IL-12p70, TNF-α and TGF-β concentrations were determined using Luminex assay (MILLIPLEX™ Human Cytokine/Chemokine Kit, Merck Millipore) and ELISA assay (DuoSet ELISA Kit, R&D systems) according to the manufacturer's instructions. […]

| SMILES | ability of inhibitor-pretreated tDCs to stimulate allogeneic T cell proliferation (allogeneic T cells) | lactate generation in Dex/VitD tDCs in the presence of inhibitor (glycolysis) | IL-10 production in tDCs in the presence of inhibitor (tDCs [1]) | IL-12 production in tDCs in the presence of inhibitor (tDCs [1]) | CD86 expression in tDCs in the presence of inhibitor (tDCs [2]) | ILT-3 and PD-L1 expression in tDCs in the presence of inhibitor (tDCs [2]) | IL-12 production in cDCs in the presence of inhibitor (cDCs) | viability of DCs (DCs) | PD-L1 expression in the presence of inhibitor (tDCs [2]; after LPS stimulation) | IL-10 production in cDCs in the presence of inhibitor (cDCs; after LPS restimulation) |
| --- | --- | --- | --- | --- | --- | --- | --- | --- | --- | --- |
| O=CC[C@@H](O)[C@H](O)[C@H](O)CO [2-DG, 2-deoxyglucose] | increased partially | significantly prevented lactate generation | markedly decreased IL-10 production | remained unaffected | remained unaffected | failed to up-regulate ILT-3 and PD-L1 molecules | – | – | – | – |
| Cc1ccc(S(=O)(=O)/C=C/C#N)cc1 [Bay 11-7082] | – | – | significantly dependent; also recorded: abrogated IL-10 production | did not changed IL-12 production; also recorded: did not affect IL-12 production | – | – | markedly down-regulated IL-12 production | – | – | – |
| C[C@@H]1C[C@H]2[C@@H]3CCC4=CC(=O)C=C[C@]4(C)[C@@]3(F)[C@@H](O)C[C@]2(C)[C@@]1(O)C(=O)CO [Dex, Dexamethasone] | – | – | – | – | – | – | – | did not affect the viability of DCs | – | – |
| COc1cccc(-c2cc(=O)c3ccccc3o2)c1N [PD98059] | increased the ability | – | significantly dependent | – | significantly up-regulated CD86 expression | – | – | – | down-regulated PD-L1 expression | – |
| C[S+]([O-])c1ccc(-c2nc(-c3ccncc3)c(-c3ccc(F)cc3)[nH]2)cc1 (centres unmarked) [SB203580] | – | – | significantly dependent | did not changed IL-12 production; also recorded: did not affect IL-12 production | – | down-regulated ILT-3 and PD-L1 expression | markedly down-regulated IL-12 production | – | – | – |
| O=[N+]([O-])c1ccc2c(c1)S(=O)(=O)C=C2 [Stattic] | partial restoration | – | reduced IL-10 production | unaffected | significantly increased CD86 expression | markedly reduced expression | unaffected | – | – | down-regulated IL-10 production |
| C[C@H](/C=C/[C@H](C)C(C)(C)O)[C@H]1CC[C@H]2/C(=C/C=C3C[C@@H](O)C[C@H](O)C3)CCC[C@]12C [VitD2, 19-nor-1,25-dihydroxyvitamin D2] | – | – | – | – | – | – | – | did not affect the viability of DCs | – | – |
